Experimental data as given in patent US20150023877A1, “METHODS OF PARKINSONS DISEASE DIAGNOSIS AND MONITORING TREATMENT” (The Board of Trustees of the Leland Stanford Junior …, priority 2013, published 2015).
Values joined by “and” are separate entries in the source; they are usually repeats but may differ in a detail not shown here. Identical values can stand only once. Like-named read-outs stand apart in the source and are kept apart here.

How the values were obtained:
[1] = tested on: implantation site (striatum); conditions: cited from earlier work
[2] = tested on: pRPE cells; assay: Melanin quantification analysis in pRPE cells; type: cell-based, porcine; conditions: 2 mM L-tyrosine pre-treatment; from 14.34±0.48 untreated
Description: In vitro measurement of melanin content was performed for pRPE and ARPE-19 cells in parallel with the ^18F-P3BZA cell uptake assay according to methods reported previously with slight modifications^35. The cells were harvested after pretreatment with or without 2 mM L-tyrosine for 24 h and washed with PBS, then they were incubated overnight in 500 μL of 1 N NaOH at room temperature. The solution was pipetted repeatedly to homogenize the extracts. The concentration of total protein was determined using a microBCA protein assay kit (Pierce Biotechnology) and then the concentration of samples was adjusted to 0.4 μg/μL. Extracts (100 μL) were added into 96-well plates in triplicate. The relative melanin content of samples was determined by measuring their absorbance at 405 nm using a plate reader (TECAN, Research Triangle Park, N.C.). Results were expressed as absorbance of 405 nm per mg protein (A 405 nm/mg protein).

[3] = tested on: pRPE cells; assay: In vitro cell uptake of ^18F-P3BZA in pRPE cells; type: cell-based; conditions: for uptake of ^18F-P3BZA in pRPE cells: without L-tyrosine
Description: (§1) pRPE (generation 3, 5×10^5) or control ARPE-19 cells were plated in a 12-well plate pretreated with or without L-tyrosine (2 mM) for 24 h. They were incubated with 74 kBq (2 μCi)/well of ^18F-P3BZA at 37° C. for 15, 30, 60, and 120 minute. The cells were washed three times with chilled PBS and lysed with 500 μL of 0.1 M NaOH. The cell lysates were then collected and the radioactivity of the lysates was measured with a γ counter (Perkin-Elmer, MA, USA). The cell uptake was expressed as the percentage of total applied radioactivity. All experiments were performed with triplicate samples. Similarly, uptake of ^18F-P3BZA at 30 minute incubation was determined in pRPE cells at different passages (pRPE-P3, pRPE-P5 and pRPE-P8) and control ARPE19 cells, with or without L-tyrosine pretreatment.

[4] = tested on: ARPE-19 cells; assay: In vitro cell uptake of ^18F-P3BZA in control ARPE-19 cells; type: cell-based, human
Description: as §1

[5] = Dynamic PET imaging in normal rat brain; type: in vivo
Description: (§2) Small animal PET/CT imaging was performed on a Siemens Inveon small-animal multimodality PET/CT system (Preclinical Solutions; Siemens Healthcare Molecular Imaging, Knoxville, Tenn.). For each rat, ^18F-P3BZA (7.4 MBq, 200 μCi) was administrated through tail vein.
To assess the in vivo kinetics of ^18F-P3BZA in normal rat brain, dynamic PET imaging (10×1 minute, 10×2 minute, 2×5 minute, 3×10 minute; total of 25 frames) was initiated immediately after administration of the probe and terminated 70 minute later on normal rats (n=4).
CT scan (632 slices at 206 μm) was performed immediately after PET imaging for both photon attenuation correction and image co-registration with PET image data for anatomical information. PET Images were reconstructed with a 2-dimensional ordered-subsets expectation maximization algorithm (OSEM 2D). ROIs were drawn in bilateral striatum using the Inveon Research Workspace software. The average radioactivity concentration in the ROIs was obtained from the mean pixel values within the ROIs volume. […] The results were then divided by the injected dose to obtain an image ROI-derived % ID/g, and the TAC was then calculated and obtained.

[6] = tested on: gelatin microcarrier-bound pRPE cells (pRPE-GMs); assay: Static PET/CT of intrastriatal implanted pRPE-GMs, 2 days after implantation; type: in vivo, rat
Description: (§3) Female Wistar rats (Charles Rivers Laboratory, Wilmington, Mass., USA) weighing 176-200 g were used in this study. All animal work was conducted in accordance with the Administrative Panel on Laboratory Animal Care at Stanford University. The implantation procedure was performed following the surgical procedures described in a previous report^36. Animals were anesthetized using isofluorane and were implanted at left striatum with RPE-GMs using the following (flat-skull) coordinates: anterior posterior (AP) −0.4; medial lateral (ML) ±3.5; dorsal ventral (DV) −5.0. The control GMs-alone were implanted on the contralateral side of the striatum and performed using the same procedure. Before the implantation procedure, solutions contained RPE cells (melanotic pRPE or amelanotic ARPE-19, 12,000˜15,000 cells in 10 μL) were drawn into a sterile 50 μL Hamilton syringe (Hamilton Company, Reno, Nev.).
(§4) Small animal PET/CT imaging was performed on a Siemens Inveon small-animal multimodality PET/CT system (Preclinical Solutions; Siemens Healthcare Molecular Imaging, Knoxville, Tenn.). For each rat, ^18F-P3BZA (7.4 MBq, 200 μCi) was administrated through tail vein. […]

[7] = tested on: gelatin microcarrier-bound ARPE-19 cells (ARPE-19-GMs); assay: Static PET/CT of intrastriatal implanted ARPE-19-GMs, 2 days after implantation; type: in vivo, rat
Description: as §3, §4

[8] = tested on: pRPE-GMs; assay: Longitudinal PET/CT after implantation of pRPE-GMs; type: in vivo, rat
Description: as §2
To evaluate the potential of ^18F-P3BZA for monitoring the survival and function of RPE cells implanted, longitudinal PET/CT scans were acquired at day 2, 9 and 16 after cell implantation of pRPE-GMs in the left and GMs as control in right striatum in normal rats (n=12). PET/CT imaging started at 1 h after tail vein injection of ^18F-P3BZA Immediately after PET/CT scan at each time point (day 2, 9 and 16), four rats were sacrificed and the brain slices were prepared for immunohistochemistry and Fontana-Masson staining.

[9] = tested on: gelatin microcarrier-bound pRPE cells; assay: Ex vivo autoradiography of rat brain sections; type: in vivo; conditions: after static PET/CT
Source text: The sacrificed rat brains were removed and embedded in optimum cutting temperature (O.C.T.) compound (Tissue-Tek, Sakura, USA). Subsequently, thick axial blocks (12 μm) were cut using a cryostat microtome HM500 (Microm, HM 500 M, Heidelberg, Germany). The sections were mounted on microscope slides (Fisherbrand Superfrost Plus microscope slides, Fisherbrand Superfrost Plus Microscope Slides, Vernon Hills, Ill., USA). The representative coronal sections through the striatum (including visible injection sites) were used for autoradiography immediately or preserved in −80° C. for other postmortem analysis.
After static PET/CT imaging, frozen brain sections were prepared immediately for autoradiography. The sections were air-dried for 10 minute, and then exposed to a radioactivity sensitive storage phosphor screen (Perkin-Elmer, USA) for 24 h at 4° C. The imaging plates were analyzed using a Typhoon 9410 variable mode imager (Amersham Biosciences, Salt Lake City, Utah, USA), and the image data were visualized and processed by Image J (image processing and analysis software in Java).

[10] = tested on: MCF-7-TYR; conditions: cited from earlier work
[11] = tested on: B16F10; conditions: cited from earlier work
[12] = tested on: MCF-7 cells; conditions: cited from earlier work
[13] = after implantation of the RPE cells
[14] = before implantation of the RPE cells

CCN1CCC[C@H]1CNC(=O)c1c(O)c(Cl)cc(Cl)c1O[11CH3] (racemic) [^11C-raclopride]
implantation site (striatum) to cortex uptake ratio [1, 13]: 2.44±0.67 | implantation site (striatum) to cortex uptake ratio [1, 14]: 2.41±0.74

N[C@@H](Cc1ccc(O)cc1)C(=O)O [L-tyrosine]
melanin content in pRPE cells (P3) [2]: 21.34±1.73 A 405 per mg protein

CCN(CC)CCNC(=O)c1ccc([18F])cn1 [^18F-P3BZA, N-(2-(diethylamino)ethyl)-^18F-5-fluoropicolinamide]
uptake of ^18F-P3BZA in L-tyrosine treated pRPE cells ([3]; 2 mM L-tyrosine pre-treatment, 30 minute incubation): 39.07±1.65% | uptake of ^18F-P3BZA in pRPE cells ([3]; 60 minutes incubation): 9.09%±0.31 % of applied activity | uptake of ^18F-P3BZA in pRPE cells ([3]; 120 minutes incubation): 8.61%±0.47 % of applied activity | fold uptake in passage 3 pRPE cells vs control amelanotic ARPE-19 cells ([3]; in vitro): 9 fold | increase in uptake in pRPE cells after tyrosine treatment vs nontreatment groups ([3]; multiple time points, FIG. 2A): three- to fourfold higher | uptake of ^18F-P3BZA in pRPE cells ([3]; pRPE passage 3, 30 minutes incubation): 10.72±0.38 % of applied activity and 10.72%±0.38 % of applied activity and 10.71%±0.38 % of applied activity | increase of uptake after tyrosine treatment ([3]; pRPE-P3): 48.8% | decreasing rate of cell uptake per passage ([3]; pRPE-P3, P5, P8): −1.45 % of applied activity per passage | increase of uptake after tyrosine treatment ([3]; pRPE-P5): 37.8% | increase of uptake after tyrosine treatment ([3]; pRPE-P8): 31.9% | uptake of ^18F-P3BZA in pRPE-P5 cells ([3]; passage 5, 30 minute incubation): 6.25%±0.59 % of applied activity | uptake of ^18F-P3BZA in pRPE-P8 cells ([3]; passage 8, 30 minute incubation): 3.29%±0.15 % of applied activity | uptake in control ARPE-19 cells at each time point ([4]; 15, 30, 60, 120 minutes): remained low | uptake of ^18F-P3BZA in control ARPE-19 cells ([4]; 30 minute incubation): 1.31%±0.15 % of applied activity | uptake in ARPE-19 cells before and after tyrosine treatment ([4]; with vs without L-tyrosine): no difference | uptake in rat brain ([5]; 2 min after injection (peak)): 7.61±0.30 % ID/g | uptake in rat brain ([5]; 28 min after injection): 3.54±0.21 % ID/g | uptake in rat brain ([5]; 60 min after injection): 1.04±0.37 % ID/g | blood-brain barrier passage ([5]; PET images, normal rat): could rapidly cross the blood-brain barrier | pRPE-GMs to adjacent normal striatum uptake ratio [6]: 3.19±0.53 | pRPE-GMs to control gelatin microcarriers uptake ratio [6]: 3.05±0.57 | ARPE-19-GMs to gelatin microcarriers uptake ratio [7]: 1.21±0.36 | uptake in pRPE-GMs ([8]; 2 days post-implantation): 3.39±0.18 % ID/g | uptake in pRPE-GMs ([8]; 9 days post-implantation): 2.49±0.41 % ID/g | uptake in pRPE-GMs ([8]; 16 days post-implantation): 1.20±0.13 % ID/g | autoradiography signal of pRPE-GMs transplant site vs ARPE-19-GMs or GMs alone sites [9]: significantly higher | cell uptake ([10]; 0.5 h incubation): 5.57±0.31% | cell uptake ([10]; 1 h incubation): 7.14±0.18% | cell uptake ([11]; 0.5 h incubation): 6.85±0.08% | cell uptake ([11]; 1 h incubation): 8.55±0.24% | cell uptake ([12]; 0.5 h incubation): 0.25±0.05% | cell uptake ([12]; 1 h incubation): 0.32±0.07%

N[C@@H](Cc1cc(O)c(O)cc1[18F])C(=O)O [^18F-fluoro-L-DOPA]
implantation site (striatum) to cortex uptake ratio [1, 13]: 1.48±0.07 | implantation site (striatum) to cortex uptake ratio [1, 14]: 1.35±0.10
